{"source": "paper PMC6019134", "about": "“1,2,6-Thiadiazinones as Novel Narrow Spectrum Calcium/Calmodulin-Dependent Protein Kinase Kinase 2 (CaMKK2) Inhibitors” (Molecules : A Journal of Synthetic Chemistry and Natural …, 2018)", "assay_in_all_cases": "DSF thermal shift, kinase panel", "format_in_all_cases": "binding", "conditions_in_all_cases": "10 μM compound", "key": {"[1]": {"molecular_target": "T1, AAK1 (Homo sapiens, UniProt Q2M2I8)", "T1 construct": "purchased in-house (home-made panel, SGC-style construct names)", "T1 sequence (Q2M2I8 whole entry)": "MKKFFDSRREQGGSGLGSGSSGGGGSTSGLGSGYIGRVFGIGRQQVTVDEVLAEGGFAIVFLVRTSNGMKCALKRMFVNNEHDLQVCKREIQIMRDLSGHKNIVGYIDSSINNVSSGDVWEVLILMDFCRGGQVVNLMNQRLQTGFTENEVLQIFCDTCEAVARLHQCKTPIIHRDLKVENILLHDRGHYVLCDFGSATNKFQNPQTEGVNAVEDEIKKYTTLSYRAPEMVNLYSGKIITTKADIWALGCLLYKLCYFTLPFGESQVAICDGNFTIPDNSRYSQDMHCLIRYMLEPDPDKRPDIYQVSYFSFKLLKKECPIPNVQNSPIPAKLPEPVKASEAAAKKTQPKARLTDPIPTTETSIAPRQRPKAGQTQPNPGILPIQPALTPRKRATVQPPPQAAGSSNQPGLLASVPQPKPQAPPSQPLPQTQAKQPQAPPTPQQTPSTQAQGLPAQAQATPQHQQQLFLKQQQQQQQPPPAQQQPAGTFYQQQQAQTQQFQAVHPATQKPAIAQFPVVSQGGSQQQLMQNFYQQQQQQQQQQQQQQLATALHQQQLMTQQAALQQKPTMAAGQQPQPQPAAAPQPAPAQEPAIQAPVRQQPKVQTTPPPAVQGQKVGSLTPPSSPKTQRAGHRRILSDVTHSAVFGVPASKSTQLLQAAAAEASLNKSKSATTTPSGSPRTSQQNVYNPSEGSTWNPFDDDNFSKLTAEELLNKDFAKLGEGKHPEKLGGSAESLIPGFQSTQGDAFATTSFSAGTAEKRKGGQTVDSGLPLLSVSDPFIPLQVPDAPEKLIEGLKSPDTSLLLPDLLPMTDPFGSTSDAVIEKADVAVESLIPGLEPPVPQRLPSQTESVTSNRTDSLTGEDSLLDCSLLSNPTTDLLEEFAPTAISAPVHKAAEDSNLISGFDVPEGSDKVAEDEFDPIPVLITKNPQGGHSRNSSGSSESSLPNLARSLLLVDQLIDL", "procedure,_shortened": "(§1)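 Read-out is melting temperature shift (dTm), derived by Boltzmann fitting of fluorescence melt curves and referenced to protein/dye with 0.2% DMSO. Kinase 1 µM, compound 10 µM, phosphate buffer pH 7.5 with NaCl and glycerol; ramp 25→95 °C at 0.05 °C/s.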"}, "[2]": {"molecular_target": "T2, CAMK1D (Homo sapiens, UniProt Q8IU85)", "T2 construct": "purchased in-house (home-made panel, SGC-style construct names)", "T2 sequence (Q8IU85 whole entry)": "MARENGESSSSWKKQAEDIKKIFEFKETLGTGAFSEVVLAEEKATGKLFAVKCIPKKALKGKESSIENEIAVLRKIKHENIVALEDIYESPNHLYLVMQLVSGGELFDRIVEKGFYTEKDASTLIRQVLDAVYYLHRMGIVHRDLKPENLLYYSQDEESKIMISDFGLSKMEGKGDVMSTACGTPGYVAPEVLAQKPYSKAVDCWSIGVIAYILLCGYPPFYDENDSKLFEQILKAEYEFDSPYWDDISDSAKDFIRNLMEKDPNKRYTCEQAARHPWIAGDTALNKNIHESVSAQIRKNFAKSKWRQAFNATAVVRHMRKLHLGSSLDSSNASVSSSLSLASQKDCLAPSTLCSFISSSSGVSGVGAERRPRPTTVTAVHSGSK", "procedure,_shortened": "as §1"}, "[3]": {"molecular_target": "T3, CAMKK2B (Homo sapiens, UniProt Q96RR4)", "T3 construct": "purchased in-house (home-made panel, SGC-style construct names)", "T3 sequence (Q96RR4 161-449)": "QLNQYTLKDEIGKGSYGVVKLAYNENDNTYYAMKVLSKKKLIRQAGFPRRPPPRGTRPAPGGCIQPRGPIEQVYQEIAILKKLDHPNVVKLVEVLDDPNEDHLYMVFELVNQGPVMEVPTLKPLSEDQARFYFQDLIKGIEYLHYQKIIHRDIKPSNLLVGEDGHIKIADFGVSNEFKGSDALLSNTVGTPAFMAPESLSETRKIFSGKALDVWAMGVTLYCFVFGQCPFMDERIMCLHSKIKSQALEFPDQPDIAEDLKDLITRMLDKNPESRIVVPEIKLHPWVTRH", "procedure,_shortened": "as §1"}, "[4]": {"molecular_target": "T4, CSNK1G1 (Homo sapiens, UniProt Q9HCP0)", "T4 construct": "purchased in-house (home-made panel, SGC-style construct names)", "T4 sequence (Q9HCP0 whole entry)": "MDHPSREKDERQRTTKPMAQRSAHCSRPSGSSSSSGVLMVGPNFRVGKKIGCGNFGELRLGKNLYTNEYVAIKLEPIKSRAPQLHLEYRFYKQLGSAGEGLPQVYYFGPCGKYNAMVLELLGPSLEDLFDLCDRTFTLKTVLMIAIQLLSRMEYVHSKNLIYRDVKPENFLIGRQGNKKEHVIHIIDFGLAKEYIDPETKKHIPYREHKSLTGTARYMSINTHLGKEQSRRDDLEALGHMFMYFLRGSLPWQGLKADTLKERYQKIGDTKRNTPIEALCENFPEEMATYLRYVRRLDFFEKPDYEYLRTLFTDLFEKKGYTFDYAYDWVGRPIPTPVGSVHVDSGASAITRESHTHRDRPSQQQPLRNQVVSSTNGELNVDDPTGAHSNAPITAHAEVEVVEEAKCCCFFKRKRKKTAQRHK", "procedure,_shortened": "as §1"}, "[5]": {"molecular_target": "T5, EPHA2A (Homo sapiens, UniProt P29317)", "T5 construct": "purchased in-house (home-made panel, SGC-style construct names)", "T5 sequence (P29317 24-976)": "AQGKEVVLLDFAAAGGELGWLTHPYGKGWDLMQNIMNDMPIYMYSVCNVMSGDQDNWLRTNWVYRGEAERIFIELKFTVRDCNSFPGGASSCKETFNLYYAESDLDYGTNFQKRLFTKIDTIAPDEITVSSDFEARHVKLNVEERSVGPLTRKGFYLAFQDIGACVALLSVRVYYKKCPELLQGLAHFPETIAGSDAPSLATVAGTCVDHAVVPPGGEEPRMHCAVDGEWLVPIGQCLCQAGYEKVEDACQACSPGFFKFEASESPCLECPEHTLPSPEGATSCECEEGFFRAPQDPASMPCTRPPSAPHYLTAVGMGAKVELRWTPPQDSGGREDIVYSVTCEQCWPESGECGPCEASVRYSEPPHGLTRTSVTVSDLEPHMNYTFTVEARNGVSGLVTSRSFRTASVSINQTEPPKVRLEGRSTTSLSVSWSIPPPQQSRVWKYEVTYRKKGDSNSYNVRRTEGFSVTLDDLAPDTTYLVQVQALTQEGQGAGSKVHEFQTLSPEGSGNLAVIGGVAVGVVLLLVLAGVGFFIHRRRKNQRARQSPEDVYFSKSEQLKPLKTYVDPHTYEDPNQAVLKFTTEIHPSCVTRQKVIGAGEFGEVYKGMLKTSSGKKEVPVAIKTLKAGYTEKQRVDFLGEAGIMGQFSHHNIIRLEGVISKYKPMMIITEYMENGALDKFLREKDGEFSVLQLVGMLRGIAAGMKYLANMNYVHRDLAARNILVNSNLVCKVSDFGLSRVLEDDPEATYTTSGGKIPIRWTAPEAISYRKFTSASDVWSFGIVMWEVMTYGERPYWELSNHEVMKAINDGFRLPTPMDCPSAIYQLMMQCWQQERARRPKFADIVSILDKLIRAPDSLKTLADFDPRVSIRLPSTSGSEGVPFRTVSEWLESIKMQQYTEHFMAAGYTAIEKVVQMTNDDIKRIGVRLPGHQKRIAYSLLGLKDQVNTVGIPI", "procedure,_shortened": "as §1"}, "[6]": {"molecular_target": "T6, MAP2K7A (Homo sapiens, UniProt O14733)", "T6 construct": "purchased in-house (home-made panel, SGC-style construct names)", "T6 sequence (O14733 1-419)": "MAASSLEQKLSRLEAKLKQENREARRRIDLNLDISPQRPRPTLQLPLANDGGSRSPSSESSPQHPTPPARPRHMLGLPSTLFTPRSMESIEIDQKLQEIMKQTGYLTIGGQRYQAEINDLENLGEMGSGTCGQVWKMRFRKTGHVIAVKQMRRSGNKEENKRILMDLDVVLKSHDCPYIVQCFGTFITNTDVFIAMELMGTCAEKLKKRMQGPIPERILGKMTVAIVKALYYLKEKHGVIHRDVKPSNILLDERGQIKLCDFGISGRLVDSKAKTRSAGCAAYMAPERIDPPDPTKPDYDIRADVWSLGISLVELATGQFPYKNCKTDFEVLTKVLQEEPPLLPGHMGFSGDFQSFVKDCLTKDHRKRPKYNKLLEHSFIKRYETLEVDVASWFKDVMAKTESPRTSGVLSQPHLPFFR", "procedure,_shortened": "as §1"}, "[7]": {"molecular_target": "T7, PIM1A (Homo sapiens, UniProt P11309)", "T7 construct": "purchased in-house (home-made panel, SGC-style construct names)", "T7 sequence (P11309 whole entry)": "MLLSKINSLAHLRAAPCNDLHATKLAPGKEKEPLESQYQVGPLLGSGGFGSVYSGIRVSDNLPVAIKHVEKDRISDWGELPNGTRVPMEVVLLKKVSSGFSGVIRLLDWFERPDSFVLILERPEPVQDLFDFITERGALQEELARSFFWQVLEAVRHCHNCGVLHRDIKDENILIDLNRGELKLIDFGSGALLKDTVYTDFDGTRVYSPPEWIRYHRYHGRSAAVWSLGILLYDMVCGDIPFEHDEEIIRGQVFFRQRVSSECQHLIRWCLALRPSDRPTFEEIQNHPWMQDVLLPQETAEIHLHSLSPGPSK", "procedure,_shortened": "as §1"}, "[8]": {"molecular_target": "T8, RPS6KA1A (Homo sapiens, UniProt Q15418)", "T8 construct": "purchased in-house (home-made panel, SGC-style construct names)", "T8 sequence (Q15418 whole entry)": "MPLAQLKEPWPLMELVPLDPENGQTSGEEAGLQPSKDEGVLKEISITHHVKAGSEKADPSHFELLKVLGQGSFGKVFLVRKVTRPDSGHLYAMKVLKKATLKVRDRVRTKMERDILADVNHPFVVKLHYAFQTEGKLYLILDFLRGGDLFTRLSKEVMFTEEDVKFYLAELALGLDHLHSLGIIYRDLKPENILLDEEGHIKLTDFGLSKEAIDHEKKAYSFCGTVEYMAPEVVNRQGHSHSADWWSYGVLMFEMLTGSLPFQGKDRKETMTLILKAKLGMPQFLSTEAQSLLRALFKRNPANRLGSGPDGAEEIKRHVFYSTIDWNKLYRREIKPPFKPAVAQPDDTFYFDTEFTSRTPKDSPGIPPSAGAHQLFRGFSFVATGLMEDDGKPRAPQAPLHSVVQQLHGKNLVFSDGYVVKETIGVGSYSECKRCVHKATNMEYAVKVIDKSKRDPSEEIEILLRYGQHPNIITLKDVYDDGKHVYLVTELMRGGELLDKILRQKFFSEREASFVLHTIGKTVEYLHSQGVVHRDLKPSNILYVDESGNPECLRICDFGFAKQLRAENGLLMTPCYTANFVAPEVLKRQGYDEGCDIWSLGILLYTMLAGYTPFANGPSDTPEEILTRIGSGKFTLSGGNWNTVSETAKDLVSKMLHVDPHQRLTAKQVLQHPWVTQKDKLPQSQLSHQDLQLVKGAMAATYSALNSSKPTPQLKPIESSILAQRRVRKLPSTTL", "procedure,_shortened": "as §1"}, "[9]": {"molecular_target": "T9, STK24A (Homo sapiens, UniProt Q9Y6E0)", "T9 construct": "TEV-cleavable (cleaved yes); made in house; host or cells: E. coli", "T9 sequence (Q9Y6E0 whole entry)": "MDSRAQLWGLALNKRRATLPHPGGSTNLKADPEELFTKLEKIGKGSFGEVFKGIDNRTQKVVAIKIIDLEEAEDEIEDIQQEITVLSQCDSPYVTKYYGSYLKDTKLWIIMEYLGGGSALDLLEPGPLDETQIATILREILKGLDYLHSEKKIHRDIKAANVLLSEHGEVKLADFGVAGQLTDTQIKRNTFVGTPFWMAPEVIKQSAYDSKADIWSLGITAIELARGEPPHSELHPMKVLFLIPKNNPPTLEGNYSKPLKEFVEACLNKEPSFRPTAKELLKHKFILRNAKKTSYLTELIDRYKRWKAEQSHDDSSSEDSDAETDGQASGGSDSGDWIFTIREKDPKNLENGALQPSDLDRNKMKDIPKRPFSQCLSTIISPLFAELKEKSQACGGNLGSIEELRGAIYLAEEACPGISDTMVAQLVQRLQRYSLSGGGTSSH", "procedure,_shortened": "as §1"}, "[10]": {"molecular_target": "T10, STK38LA (Homo sapiens, UniProt Q9Y2H1)", "T10 construct": "TEV-cleavable (cleaved yes); made in house; host or cells: E. coli", "T10 sequence (Q9Y2H1 whole entry)": "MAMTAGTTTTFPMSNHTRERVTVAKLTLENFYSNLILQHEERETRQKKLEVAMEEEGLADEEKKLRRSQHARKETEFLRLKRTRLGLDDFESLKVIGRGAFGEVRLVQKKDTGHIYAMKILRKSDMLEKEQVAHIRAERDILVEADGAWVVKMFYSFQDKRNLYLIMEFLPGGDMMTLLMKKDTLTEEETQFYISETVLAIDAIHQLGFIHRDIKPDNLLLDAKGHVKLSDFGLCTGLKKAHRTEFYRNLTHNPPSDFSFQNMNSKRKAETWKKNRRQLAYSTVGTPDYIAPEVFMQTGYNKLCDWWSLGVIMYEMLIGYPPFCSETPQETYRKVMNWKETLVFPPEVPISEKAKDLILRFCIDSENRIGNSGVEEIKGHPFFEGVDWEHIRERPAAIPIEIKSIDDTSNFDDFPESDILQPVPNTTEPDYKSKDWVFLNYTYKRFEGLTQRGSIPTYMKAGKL", "procedure,_shortened": "as §1"}, "[11]": {"molecular_target": "T11, TTKA (Homo sapiens, UniProt P33981)", "T11 construct": "TEV-cleavable (cleaved yes); made in house; host or cells: E. coli", "T11 sequence (P33981 1-857)": "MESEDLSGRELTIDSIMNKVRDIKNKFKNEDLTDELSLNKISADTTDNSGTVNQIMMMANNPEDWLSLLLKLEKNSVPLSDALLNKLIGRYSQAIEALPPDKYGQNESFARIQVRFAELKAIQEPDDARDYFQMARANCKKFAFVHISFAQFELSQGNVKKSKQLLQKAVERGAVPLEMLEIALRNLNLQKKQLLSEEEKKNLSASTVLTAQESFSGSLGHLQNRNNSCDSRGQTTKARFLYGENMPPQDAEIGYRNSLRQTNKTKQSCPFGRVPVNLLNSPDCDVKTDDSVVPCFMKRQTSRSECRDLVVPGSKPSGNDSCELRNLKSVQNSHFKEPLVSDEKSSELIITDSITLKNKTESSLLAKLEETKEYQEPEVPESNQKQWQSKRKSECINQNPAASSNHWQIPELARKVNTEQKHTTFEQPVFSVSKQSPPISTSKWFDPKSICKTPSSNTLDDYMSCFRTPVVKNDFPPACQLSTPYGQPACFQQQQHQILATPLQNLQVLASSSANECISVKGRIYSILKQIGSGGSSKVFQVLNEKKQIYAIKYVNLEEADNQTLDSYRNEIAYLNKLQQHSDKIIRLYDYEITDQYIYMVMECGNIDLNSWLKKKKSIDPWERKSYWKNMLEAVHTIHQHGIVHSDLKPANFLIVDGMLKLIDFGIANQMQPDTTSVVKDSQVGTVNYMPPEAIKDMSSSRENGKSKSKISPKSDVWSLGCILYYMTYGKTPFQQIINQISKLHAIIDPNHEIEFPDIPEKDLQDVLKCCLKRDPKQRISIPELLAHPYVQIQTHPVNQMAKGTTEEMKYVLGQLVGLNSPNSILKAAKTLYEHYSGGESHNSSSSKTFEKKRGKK", "procedure,_shortened": "as §1"}}, "data": [{"compound": "Cc1ccc(Nc2nsnc(Nc3cccc(C(N)=O)c3)c2=O)cc1O", "note": "[Compound 1, 3-({5-[(3-Hydroxy-4-methylphenyl)amino]-4-oxo-4H-1,2,6-thiadiazin-3-yl}amino)benzamide]", "values": [{"measurement": "ΔTm at 10 µM", "setting": "[1]", "value": 0.6, "unit": "°C"}, {"measurement": "ΔTm at 10 µM", "setting": "[2]", "value": 0.8, "unit": "°C"}, {"measurement": "ΔTm at 10 µM", "setting": "[3]", "value": 0.5, "unit": "°C"}, {"measurement": "ΔTm at 10 µM", "setting": "[4]", "value": -0.6, "unit": "°C"}, {"measurement": "ΔTm at 10 µM", "setting": "[5]", "value": 0.2, "unit": "°C"}, {"measurement": "ΔTm at 10 µM", "setting": "[6]", "value": 1.1, "unit": "°C"}, {"measurement": "ΔTm at 10 µM", "setting": "[7]", "value": 1, "unit": "°C"}, {"measurement": "ΔTm at 10 µM", "setting": "[8]", "value": -0.6, "unit": "°C"}, {"measurement": "ΔTm at 10 µM", "setting": "[9]", "value": -0.1, "unit": "°C"}, {"measurement": "ΔTm at 10 µM", "setting": "[10]", "value": 0.2, "unit": "°C"}, {"measurement": "ΔTm at 10 µM", "setting": "[11]", "value": 0.8, "unit": "°C"}]}, {"compound": "Cc1ccc(Nc2nsnc(Nc3ccc(C(N)=O)cc3)c2=O)cc1O", "note": "[Compound 2, 4-({5-[(3-Hydroxy-4-methylphenyl)amino]-4-oxo-4H-1,2,6-thiadiazin-3-yl}amino)benzamide]", "values": [{"measurement": "ΔTm at 10 µM", "setting": "[1]", "value": 1.5, "unit": "°C"}, {"measurement": "ΔTm at 10 µM", "setting": "[2]", "value": 4.3, "unit": "°C"}, {"measurement": "ΔTm at 10 µM", "setting": "[3]", "value": 2.9, "unit": "°C"}, {"measurement": "ΔTm at 10 µM", "setting": "[4]", "value": -1, "unit": "°C"}, {"measurement": "ΔTm at 10 µM", "setting": "[5]", "value": 0.5, "unit": "°C"}, {"measurement": "ΔTm at 10 µM", "setting": "[6]", "value": 3.1, "unit": "°C"}, {"measurement": "ΔTm at 10 µM", "setting": "[7]", "value": 3.5, "unit": "°C"}, {"measurement": "ΔTm at 10 µM", "setting": "[8]", "value": 1.3, "unit": "°C"}, {"measurement": "ΔTm at 10 µM", "setting": "[10]", "value": 0.4, "unit": "°C"}, {"measurement": "ΔTm at 10 µM", "setting": "[11]", "value": 2.6, "unit": "°C"}]}, {"compound": "Cc1ccc(Nc2nsnc(Nc3ccc4c(c3)CS(=O)(=O)C4)c2=O)cc1O", "note": "[Compound 3, 3-[(2,2-Dioxido-1,3-dihydrobenzo[c]thiophen-5-yl)amino]-5-[(3-hydroxy-4-methylphenyl)amino]-4H-1,2,6-thiadiazin-4-one]", "values": [{"measurement": "ΔTm at 10 µM", "setting": "[1]", "value": 0.6, "unit": "°C"}, {"measurement": "ΔTm at 10 µM", "setting": "[2]", "value": 1.4, "unit": "°C"}, {"measurement": "ΔTm at 10 µM", "setting": "[3]", "value": 2.3, "unit": "°C"}, {"measurement": "ΔTm at 10 µM", "setting": "[4]", "value": -0.7, "unit": "°C"}, {"measurement": "ΔTm at 10 µM", "setting": "[5]", "value": 0.8, "unit": "°C"}, {"measurement": "ΔTm at 10 µM", "setting": "[6]", "value": 3.2, "unit": "°C"}, {"measurement": "ΔTm at 10 µM", "setting": "[7]", "value": 4.1, "unit": "°C"}, {"measurement": "ΔTm at 10 µM", "setting": "[8]", "value": -0.4, "unit": "°C"}, {"measurement": "ΔTm at 10 µM", "setting": "[9]", "value": -0.3, "unit": "°C"}, {"measurement": "ΔTm at 10 µM", "setting": "[10]", "value": 0.8, "unit": "°C"}, {"measurement": "ΔTm at 10 µM", "setting": "[11]", "value": 2.1, "unit": "°C"}]}, {"compound": "CNC(=O)c1ccccc1Nc1nsnc(Nc2cccc(CS(C)(=O)=O)c2)c1=O", "note": "[Compound 4, N-Methyl-2-([5-({3-[(methylsulfonyl)methyl]phenyl}amino)-4-oxo-4H-1,2,6-thiadiazin-3-yl]-amino}-benzamide]", "values": [{"measurement": "ΔTm at 10 µM", "setting": "[1]", "value": -0.4, "unit": "°C"}, {"measurement": "ΔTm at 10 µM", "setting": "[2]", "value": -1.3, "unit": "°C"}, {"measurement": "ΔTm at 10 µM", "setting": "[3]", "value": -0.4, "unit": "°C"}, {"measurement": "ΔTm at 10 µM", "setting": "[4]", "value": 0.3, "unit": "°C"}, {"measurement": "ΔTm at 10 µM", "setting": "[5]", "value": -0.1, "unit": "°C"}, {"measurement": "ΔTm at 10 µM", "setting": "[6]", "value": 0.6, "unit": "°C"}, {"measurement": "ΔTm at 10 µM", "setting": "[7]", "value": -0.7, "unit": "°C"}, {"measurement": "ΔTm at 10 µM", "setting": "[8]", "value": -0.4, "unit": "°C"}, {"measurement": "ΔTm at 10 µM", "setting": "[9]", "value": 0, "unit": "°C"}, {"measurement": "ΔTm at 10 µM", "setting": "[10]", "value": 0.4, "unit": "°C"}, {"measurement": "ΔTm at 10 µM", "setting": "[11]", "value": 0.3, "unit": "°C"}]}, {"compound": "CNC(=O)c1ccccc1Nc1nsnc(Nc2ccc(N3CCOCC3)cc2)c1=O", "note": "[Compound 5, N-Methyl-2-({5-[(4-morpholinophenyl)amino]-4-oxo-4H-1,2,6-thiadiazin-3-yl}amino)benzamide]", "values": [{"measurement": "ΔTm at 10 µM", "setting": "[1]", "value": -0.4, "unit": "°C"}, {"measurement": "ΔTm at 10 µM", "setting": "[2]", "value": -0.9, "unit": "°C"}, {"measurement": "ΔTm at 10 µM", "setting": "[3]", "value": -0.5, "unit": "°C"}, {"measurement": "ΔTm at 10 µM", "setting": "[4]", "value": 0, "unit": "°C"}, {"measurement": "ΔTm at 10 µM", "setting": "[5]", "value": 0, "unit": "°C"}, {"measurement": "ΔTm at 10 µM", "setting": "[6]", "value": 1, "unit": "°C"}, {"measurement": "ΔTm at 10 µM", "setting": "[7]", "value": -0.2, "unit": "°C"}, {"measurement": "ΔTm at 10 µM", "setting": "[8]", "value": -0.4, "unit": "°C"}, {"measurement": "ΔTm at 10 µM", "setting": "[9]", "value": -1.1, "unit": "°C"}, {"measurement": "ΔTm at 10 µM", "setting": "[10]", "value": 0.3, "unit": "°C"}, {"measurement": "ΔTm at 10 µM", "setting": "[11]", "value": 0.1, "unit": "°C"}]}]}
